Measured values as given in paper PMC5428509, “Irreversible inhibition of BTK kinase by a novel highly selective inhibitor CHMFL-BTK-11 suppresses inflammatory response in rheumatoid arthritis model” (Scientific Reports, 2017).

Experiments:
Assay in all cases: biochemical
Parameters in all cases: KinomeScan competition binding panel (DiscoveRx), percent of control at 1 uM
Conditions in all cases: read-out: Percent Control
[1] = target: T1, ABL1(F317I)-phosphorylated (Homo sapiens, UniProt P00519, F317I)
T1 construct: phosphorylated
Summary of the method: (§1)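 Selectivity profiled across 456 kinases/mutants by KinomeScan binding technology.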

[2] = target: T2, ABL1(F317L)-phosphorylated (Homo sapiens, UniProt P00519, F317L)
T2 construct: phosphorylated
Summary of the method: as §1

BLK = BLK (Homo sapiens, UniProt P51451)
Summary of the method: as §1

BMPR2 = BMPR2 (Homo sapiens, UniProt Q13873)
Summary of the method: as §1

CHEK1 = CHEK1 (Homo sapiens, UniProt O14757)
Summary of the method: as §1

CHEK2 = CHEK2 (Homo sapiens, UniProt O96017)
Summary of the method: as §1

CIT = CIT (Homo sapiens, UniProt O14578)
Summary of the method: as §1

CLK3 = CLK3 (Homo sapiens, UniProt P49761)
Summary of the method: as §1

CSNK1G2 = CSNK1G2 (Homo sapiens, UniProt P78368)
Summary of the method: as §1

ERK4 = target: T3, ERK4 (Homo sapiens, UniProt P31152)
T3 construct: gene MAPK4
Summary of the method: as §1

ICK = target: T4, ICK (Homo sapiens, UniProt Q9UPZ9)
T4 construct: gene CILK1
Summary of the method: as §1

KIT(L576P) = KIT(L576P) (Homo sapiens, UniProt P10721, L576P)
Summary of the method: as §1

MAP3K1 = MAP3K1 (Homo sapiens, UniProt Q13233)
Summary of the method: as §1

MAPKAPK2 = MAPKAPK2 (Homo sapiens, UniProt P49137)
Summary of the method: as §1

MAPKAPK5 = MAPKAPK5 (Homo sapiens, UniProt Q8IW41)
Summary of the method: as §1

MARK1 = MARK1 (Homo sapiens, UniProt Q9P0L2)
Summary of the method: as §1

MUSK = MUSK (Homo sapiens, UniProt O15146)
Summary of the method: as §1

NEK10 = NEK10 (Homo sapiens, UniProt Q6ZWH5)
Summary of the method: as §1

PLK1 = PLK1 (Homo sapiens, UniProt P53350)
Summary of the method: as §1

PRKG2 = PRKG2 (Homo sapiens, UniProt Q13237)
Summary of the method: as §1

RIPK1 = RIPK1 (Homo sapiens, UniProt Q13546)
Summary of the method: as §1

ROCK2 = ROCK2 (Homo sapiens, UniProt O75116)
Summary of the method: as §1

[3] = target: T5, RSK2(Kin.Dom.2-C-terminal) (Homo sapiens, UniProt P51812)
T5 construct: gene RPS6KA3; Kin.Dom.2-C-terminal
Summary of the method: as §1

SRPK1 = SRPK1 (Homo sapiens, UniProt Q96SB4)
Summary of the method: as §1

TAK1 = target: T6, TAK1 (Homo sapiens, UniProt O43318)
T6 construct: gene MAP3K7
Summary of the method: as §1

Chain of RIPK1 (Q13546 whole entry): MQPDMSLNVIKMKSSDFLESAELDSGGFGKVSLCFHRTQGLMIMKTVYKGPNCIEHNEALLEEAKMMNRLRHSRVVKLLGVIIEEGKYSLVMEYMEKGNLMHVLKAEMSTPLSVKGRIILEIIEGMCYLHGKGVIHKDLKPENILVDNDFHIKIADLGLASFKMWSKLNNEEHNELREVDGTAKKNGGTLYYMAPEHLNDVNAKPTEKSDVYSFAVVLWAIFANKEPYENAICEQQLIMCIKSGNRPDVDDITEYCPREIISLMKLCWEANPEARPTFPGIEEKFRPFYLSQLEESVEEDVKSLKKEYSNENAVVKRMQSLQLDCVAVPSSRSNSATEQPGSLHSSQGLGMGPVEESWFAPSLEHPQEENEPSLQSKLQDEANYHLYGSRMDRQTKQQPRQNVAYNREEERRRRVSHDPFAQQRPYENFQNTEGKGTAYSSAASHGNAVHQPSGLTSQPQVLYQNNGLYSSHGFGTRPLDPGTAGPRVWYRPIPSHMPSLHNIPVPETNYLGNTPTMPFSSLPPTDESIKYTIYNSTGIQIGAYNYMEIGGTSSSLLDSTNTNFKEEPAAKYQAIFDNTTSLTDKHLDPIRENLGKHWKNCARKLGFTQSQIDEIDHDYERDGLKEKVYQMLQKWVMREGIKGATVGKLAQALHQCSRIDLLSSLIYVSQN
Chain of MARK1 (Q9P0L2 whole entry): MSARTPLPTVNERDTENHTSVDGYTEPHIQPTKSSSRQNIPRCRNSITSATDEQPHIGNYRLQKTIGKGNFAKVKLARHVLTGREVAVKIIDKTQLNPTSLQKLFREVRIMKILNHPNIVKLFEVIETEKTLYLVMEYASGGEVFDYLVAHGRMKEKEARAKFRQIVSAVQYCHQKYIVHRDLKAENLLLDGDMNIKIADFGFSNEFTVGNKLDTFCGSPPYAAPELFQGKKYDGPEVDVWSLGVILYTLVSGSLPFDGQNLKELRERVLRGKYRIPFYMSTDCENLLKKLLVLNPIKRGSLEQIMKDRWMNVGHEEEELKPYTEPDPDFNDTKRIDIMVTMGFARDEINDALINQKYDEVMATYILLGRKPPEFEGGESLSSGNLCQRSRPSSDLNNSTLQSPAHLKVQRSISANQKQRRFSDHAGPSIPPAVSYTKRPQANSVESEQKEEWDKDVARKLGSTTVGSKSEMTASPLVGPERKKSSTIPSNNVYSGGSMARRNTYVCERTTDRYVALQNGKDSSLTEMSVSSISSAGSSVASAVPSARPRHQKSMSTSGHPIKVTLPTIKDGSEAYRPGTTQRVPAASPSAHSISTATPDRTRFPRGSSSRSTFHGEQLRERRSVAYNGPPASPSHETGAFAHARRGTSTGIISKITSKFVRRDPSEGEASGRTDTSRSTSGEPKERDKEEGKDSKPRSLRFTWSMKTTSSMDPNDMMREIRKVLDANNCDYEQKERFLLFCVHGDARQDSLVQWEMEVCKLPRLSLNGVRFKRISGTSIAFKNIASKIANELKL
Chain of CHEK1 (O14757 whole entry): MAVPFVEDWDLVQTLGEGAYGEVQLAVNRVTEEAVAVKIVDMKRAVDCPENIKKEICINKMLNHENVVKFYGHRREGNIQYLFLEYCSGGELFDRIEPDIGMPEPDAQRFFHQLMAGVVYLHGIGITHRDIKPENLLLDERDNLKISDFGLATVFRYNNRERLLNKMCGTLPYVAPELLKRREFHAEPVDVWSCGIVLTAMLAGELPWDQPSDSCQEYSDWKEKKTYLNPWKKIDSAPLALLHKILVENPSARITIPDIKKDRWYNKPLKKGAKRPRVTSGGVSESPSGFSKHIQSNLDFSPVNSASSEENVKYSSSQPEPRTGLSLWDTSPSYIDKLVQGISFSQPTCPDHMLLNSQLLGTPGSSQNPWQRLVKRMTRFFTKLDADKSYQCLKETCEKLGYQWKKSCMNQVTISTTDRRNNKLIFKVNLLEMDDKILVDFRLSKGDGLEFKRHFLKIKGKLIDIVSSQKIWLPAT
Chain of SRPK1 (Q96SB4 whole entry): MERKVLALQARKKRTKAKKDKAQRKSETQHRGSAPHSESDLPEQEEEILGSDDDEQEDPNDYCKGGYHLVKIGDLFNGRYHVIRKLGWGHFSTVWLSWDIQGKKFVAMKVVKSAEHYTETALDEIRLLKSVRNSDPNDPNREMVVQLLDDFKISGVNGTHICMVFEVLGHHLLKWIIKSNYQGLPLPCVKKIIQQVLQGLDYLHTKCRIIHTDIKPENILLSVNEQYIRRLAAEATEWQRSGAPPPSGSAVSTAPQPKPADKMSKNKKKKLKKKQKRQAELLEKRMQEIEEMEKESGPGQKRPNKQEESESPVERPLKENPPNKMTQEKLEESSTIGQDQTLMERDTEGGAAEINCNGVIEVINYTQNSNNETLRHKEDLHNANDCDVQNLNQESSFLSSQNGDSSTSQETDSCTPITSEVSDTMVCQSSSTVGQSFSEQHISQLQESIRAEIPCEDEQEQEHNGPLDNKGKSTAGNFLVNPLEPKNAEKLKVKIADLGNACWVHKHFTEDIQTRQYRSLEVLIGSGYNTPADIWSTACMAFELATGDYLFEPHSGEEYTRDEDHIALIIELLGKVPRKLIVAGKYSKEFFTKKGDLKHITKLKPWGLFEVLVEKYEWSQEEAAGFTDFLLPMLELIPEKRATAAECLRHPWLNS
Chain of CLK3 (P49761 whole entry): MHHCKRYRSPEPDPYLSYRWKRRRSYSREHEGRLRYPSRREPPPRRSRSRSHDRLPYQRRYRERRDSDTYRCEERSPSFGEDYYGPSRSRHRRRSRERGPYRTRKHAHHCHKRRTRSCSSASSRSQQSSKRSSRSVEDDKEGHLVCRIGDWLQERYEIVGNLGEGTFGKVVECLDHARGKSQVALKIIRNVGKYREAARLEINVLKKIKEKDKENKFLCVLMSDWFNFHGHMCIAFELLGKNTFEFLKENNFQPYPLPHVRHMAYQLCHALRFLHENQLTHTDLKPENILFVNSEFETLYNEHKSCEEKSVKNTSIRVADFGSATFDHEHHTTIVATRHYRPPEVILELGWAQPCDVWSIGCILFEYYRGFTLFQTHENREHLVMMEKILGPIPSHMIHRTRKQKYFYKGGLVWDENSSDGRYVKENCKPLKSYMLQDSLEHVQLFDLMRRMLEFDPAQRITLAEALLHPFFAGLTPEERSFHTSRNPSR
Chain of MUSK (O15146 whole entry): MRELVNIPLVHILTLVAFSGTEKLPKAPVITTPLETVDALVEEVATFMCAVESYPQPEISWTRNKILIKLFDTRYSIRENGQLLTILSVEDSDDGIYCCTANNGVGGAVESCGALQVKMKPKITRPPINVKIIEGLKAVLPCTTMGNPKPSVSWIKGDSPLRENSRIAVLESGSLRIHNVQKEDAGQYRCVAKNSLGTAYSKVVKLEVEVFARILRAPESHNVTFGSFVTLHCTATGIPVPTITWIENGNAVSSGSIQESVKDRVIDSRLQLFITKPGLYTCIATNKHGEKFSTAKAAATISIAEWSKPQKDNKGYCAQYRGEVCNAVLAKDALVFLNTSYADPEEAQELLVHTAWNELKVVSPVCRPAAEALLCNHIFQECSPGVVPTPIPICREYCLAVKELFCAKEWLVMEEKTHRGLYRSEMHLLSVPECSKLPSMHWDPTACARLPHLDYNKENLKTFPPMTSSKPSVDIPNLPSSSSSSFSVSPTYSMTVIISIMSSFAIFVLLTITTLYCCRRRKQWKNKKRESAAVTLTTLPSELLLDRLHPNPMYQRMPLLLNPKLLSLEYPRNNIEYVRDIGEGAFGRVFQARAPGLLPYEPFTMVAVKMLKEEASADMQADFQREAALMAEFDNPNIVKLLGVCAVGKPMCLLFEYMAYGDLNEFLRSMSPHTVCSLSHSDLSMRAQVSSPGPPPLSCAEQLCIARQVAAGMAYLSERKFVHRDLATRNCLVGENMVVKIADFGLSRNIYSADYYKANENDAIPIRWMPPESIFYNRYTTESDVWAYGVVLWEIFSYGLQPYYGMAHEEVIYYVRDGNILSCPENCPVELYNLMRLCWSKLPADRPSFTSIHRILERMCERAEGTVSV
Chain of CHEK2 (O96017 whole entry): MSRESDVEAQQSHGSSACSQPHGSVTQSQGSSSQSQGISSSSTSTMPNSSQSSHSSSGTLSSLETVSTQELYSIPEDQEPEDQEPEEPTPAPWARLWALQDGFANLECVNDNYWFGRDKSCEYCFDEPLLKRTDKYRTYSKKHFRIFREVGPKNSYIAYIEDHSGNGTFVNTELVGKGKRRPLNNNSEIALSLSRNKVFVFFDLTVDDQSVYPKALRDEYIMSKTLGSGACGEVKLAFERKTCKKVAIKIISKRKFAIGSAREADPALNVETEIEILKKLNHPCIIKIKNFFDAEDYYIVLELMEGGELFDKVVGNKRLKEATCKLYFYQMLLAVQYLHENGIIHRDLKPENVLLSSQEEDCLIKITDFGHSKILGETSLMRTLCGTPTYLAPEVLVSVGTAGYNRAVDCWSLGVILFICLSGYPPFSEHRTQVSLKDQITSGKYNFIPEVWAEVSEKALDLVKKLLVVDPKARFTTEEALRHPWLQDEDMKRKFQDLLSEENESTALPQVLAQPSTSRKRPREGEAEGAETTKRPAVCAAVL
Chain of BLK (P51451 whole entry): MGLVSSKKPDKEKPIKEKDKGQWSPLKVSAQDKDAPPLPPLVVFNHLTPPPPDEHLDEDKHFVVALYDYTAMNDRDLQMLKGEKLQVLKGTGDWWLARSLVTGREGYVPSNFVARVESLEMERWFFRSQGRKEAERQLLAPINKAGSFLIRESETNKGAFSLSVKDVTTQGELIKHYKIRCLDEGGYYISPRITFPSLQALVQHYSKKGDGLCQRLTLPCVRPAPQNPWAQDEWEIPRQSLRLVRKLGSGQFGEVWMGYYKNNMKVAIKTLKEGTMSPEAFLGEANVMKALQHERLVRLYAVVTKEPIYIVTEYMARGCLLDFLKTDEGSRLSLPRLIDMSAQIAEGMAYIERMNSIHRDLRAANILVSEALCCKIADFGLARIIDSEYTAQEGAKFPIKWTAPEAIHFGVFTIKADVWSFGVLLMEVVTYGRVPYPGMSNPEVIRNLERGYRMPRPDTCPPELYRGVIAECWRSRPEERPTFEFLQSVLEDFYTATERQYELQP

Compound: C=CC(=O)Nc1cc(-n2c(=O)ccc3cnc4ccc(-n5cccn5)cc4c32)ccc1C [CHMFL-BTK-11]
- remaining binding at 1 µM [1]: 100%
- remaining binding at 1 µM [2]: 100%
- remaining binding at 1 µM (BLK): 30%
- remaining binding at 1 µM (BMPR2): 100%
- remaining binding at 1 µM (CHEK1): 100%
- remaining binding at 1 µM (CHEK2): 100%
- remaining binding at 1 µM (CIT): 98%
- remaining binding at 1 µM (CLK3): 100%
- remaining binding at 1 µM (CSNK1G2): 100%
- remaining binding at 1 µM (ERK4): 96%
- remaining binding at 1 µM (ICK): 100%
- remaining binding at 1 µM (KIT(L576P)): 100%
- remaining binding at 1 µM (MAP3K1): 100%
- remaining binding at 1 µM (MAPKAPK2): 99%
- remaining binding at 1 µM (MAPKAPK5): 100%
- remaining binding at 1 µM (MARK1): 82%
- remaining binding at 1 µM (MUSK): 100%
- remaining binding at 1 µM (NEK10): 97%
- remaining binding at 1 µM (PLK1): 99%
- remaining binding at 1 µM (PRKG2): 98%
- remaining binding at 1 µM (RIPK1): 90%
- remaining binding at 1 µM (ROCK2): 97%
- remaining binding at 1 µM [3]: 100%
- remaining binding at 1 µM (SRPK1): 100%
- remaining binding at 1 µM (TAK1): 98%
